pIC50: −log10 of the molar value. Read-outs that look alike come from different tables or passages of the source.

These results are taken from patent US7041701B2, “Triterpenoid derivatives” (Univerzita Palackeho V Olomouci, priority 2000, dated 2006).

The test system of one assay is B16 mouse melanoma. The assay can be described thus: MTT cytotoxicity assay, B16. The class given is cell-based. The following applies: 72 hours, read-out: TCS50. The source says: (§1) One of the parameters used as the basis for colorimetric assays is the metabolic activity of viable cells. For example, a microtiter assay which uses the tetrazolium salt MTT is now widely used to quantitate cell proliferation and cytotoxicity [Hajdúch M, Mihál V, Minarík J, Fáber E, Safárová M, Weigl E, Antálek P.: Cytotechnology, 1996, 19, 243–245]. For instance, this assay is used in drug screening programs and in chemosensitivity testing. Because tetrazolium salts are cleaved only by metabolically active cells, these assays exclusively detect viable cells. In the case of the MTT assay, yellow soluble tetrazolium salt is reduced to a coloured water-insoluble formazan salt. After it is solubilized, the formazan formed can easily and rapidly be quantified in a conventional ELISA plate reader at 570 nm (maximum absorbancy). The quantity of reduced formazan corresponds to the number of vital cells in the culture. […]
(§2) The cell suspensions that were prepared and diluted according to the particular cell type and the expected target cell density (2,500–30,000 cells per well based on cell growth characteristics) were added by pipette (80 μl) into 96/well microtiter plates. […] Usually, test compounds were evaluated at six 4-fold dilutions. […] The tumour cell survival (TCS) was calculated using the following equitation: TCS=(ODdrug exposed well/mean ODcontrol wells)×100%. […]
(Tetrazolium dyes change colour on reduction, which living cells bring about.)

Assay [1] concerns BT549 human breast cancer, p53mut/mut. The assay can be described thus: MTT cytotoxicity assay, BT549. The class given is cell-based. The following applies: 72 hours, read-out: TCS50.
Description: as §1, §2

A further assay has as its system human normal lymphocytes. Put plainly: MTT cytotoxicity assay, normal lymphocytes. The following applies: 72 hours, read-out: TCS50. The format is cell-based.
Description: as §1, §2

The subject of assay [2] is B16F mouse melanoma, metastatic. Put plainly: MTT cytotoxicity assay, B16F. The format is cell-based. The following applies: 72 hours, read-out: TCS50.
Description: as §1, §2

Assay [3] concerns A549 human lung adenocarcinoma. Put plainly: MTT cytotoxicity assay, A549. The following applies: 72 hours, read-out: TCS50. The format is cell-based.
Description: as §1, §2

In the next assay the test system is U87MG human glioblastoma. The assay can be described thus: MTT cytotoxicity assay, U87MG. The format is cell-based. The following applies: 72 hours, read-out: TCS50.
Description: as §1, §2

Assay [4] concerns CEM-VCR 1/F3 human T-lymphoblastic leukemia, vincristin resistant. Put plainly: MTT cytotoxicity assay, CEM-VCR 1/F3. The class given is cell-based. The following applies: 72 hours, read-out: TCS50.
Description: as §1, §2

For a further assay, the system named is H3 histone (Lys9). Put plainly: Histone acetylation, Western blot in CEM cells. The format is cell-based, human. As for the experimental part: CEM cells were cultured in Dulbeco's modified essential medium with 4.5 g dextrose/l, 10% of foetal calf serum, 2 mM glutamine, 100 U/ml penicillin and 100 μg/ml streptomycin with/without the indicated concentrations of HDAC inhibitor TSA or I.3. At selected time points, cells were harvested, washed in ice cold Hank's balanced salt solution and solubilized on ice using SDS-PAGE sample buffer containing protease and phosphatase inhibitors (10 μg/ml of leupeptin, 10 μg/ml of aprotinin, 10 μg/ml of soybean trypsin inhibitor, 100 μmol of benzamide, 1 mM of sodium vanadate, 1 mM of NaF, 1 mM of phenylphosphate) and boiled immediately.
Total cellular proteins (100 μg/well) were separated on SDS-PAGE electrophoresis, blotted on polyvinyldifluoride membranes and acetylated histone was detected using a anti-acetyl(Lys9)-histone H3 rabbit polyclonal antibody (Cell Signalling Technology, Beverly, Mass.; Cat# 9671L) and visualized by chemilumniuscence (ECL-Western Blotting System, Amersham). Details of the Western blot technique are described in Ausubel, F. M., Brent, R, Kingston, R. E., Moore, D. D., Seidman, J. G., Smith, J. A., Struhl, K. (Eds): Short Protocols in Molecular. Biology, 2nd edition, John Wiley & Sons, New York, Chichester, Brisbane, Toronto, Singapore, 1992, page 10–33–10–35.
On the technique in general: A western blot detects proteins with antibodies after separation by electrophoresis.

Assay [5] concerns NIH3T3 mouse immortalised fibroblasts. Put plainly: MTT cytotoxicity assay, NIH3T3. The format is cell-based. The following applies: 72 hours, read-out: TCS50.
Description: as §1, §2

For assay [6], the system named is Caco-2 human colon cancer. The assay can be described thus: MTT cytotoxicity assay, Caco-2. The following applies: 72 hours, read-out: TCS50. The class given is cell-based.
Description: as §1, §2

Assay [7] relates to CEM human T-lymphoblastic leukemia. Put plainly: MTT cytotoxicity screening assay, CEM. The format is cell-based. The source says:
One of the parameters used as the basis for colorimetric assays is the metabolic activity of viable cells. For example, a microtiter assay which uses the tetrazolium salt MTT is now widely used to quantitate cell proliferation and cytotoxicity [Hajdúch M, Mihál V, Minarík J, Fáber E, Safárová M, Weigl E, Antálek P.: Cytotechnology, 1996, 19, 243–245]. For instance, this assay is used in drug screening programs and in chemosensitivity testing. Because tetrazolium salts are cleaved only by metabolically active cells, these assays exclusively detect viable cells. In the case of the MTT assay, yellow soluble tetrazolium salt is reduced to a coloured water-insoluble formazan salt. After it is solubilized, the formazan formed can easily and rapidly be quantified in a conventional ELISA plate reader at 570 nm (maximum absorbancy). The quantity of reduced formazan corresponds to the number of vital cells in the culture.
Human T-lymphoblastic leukaemia cell line CEM was used for routine screening of these compounds. […] The cells were maintained in Nunc/Corning 80 cm^2 plastic tissue culture flasks and cultured in cell culture medium (DMEM with 5 g/l glucose, 2 mM glutamine, 100 U/ml penicillin, 100 μg/ml streptomycin, 10% foetal calf serum and sodium bicarbonate). Individual compounds were dissolved in 10% diiethylsulfoxide/saline, pH 8.0.
The cell suspensions that were prepared and diluted according to the particular cell type and the expected target cell density (2,500–30,000 cells per well based on cell growth characteristics) were added by pipette (80 μl) into 96/well microtiter plates. Inoculates were allowed a pre-incubation period of 24 hours at 37° C. and 5% CO2 for stabilisation. Four-fold dilutions of the intended test concentration were added at time zero in 20 μl aliquots to the microtiter plate wells. Usually, test compounds were evaluated at six 4-fold dilutions. In routine testing, the highest well concentration was 250 μM, but it may differ, depending on the agent. All drug concentrations were examined in duplicate. Incubations of cells with the test compounds lasted for 72 hours at 37° C., in 5% CO2 atmosphere and 100% humidity. At the end of the incubation period, the cells were assayed by using the MTT assay. […] After this incubation period, formazan was solubilized by the addition of 100 μl/well of 10% SDS in water (pH=5.5) followed by further incubation at 37° C. overnight The optical density (OD) was measured at 540 nm with the Labsystem iEMS Reader MF(UK). The tumour cell survival (TCS) was calculated using the following equitation: TCS=(ODdrug exposed well/mean ODcontrol wells)×100%. The TCS50 value, the drug concentration lethal to 50% of the tumour cells, was calculated from the obtained dose response curves. […]

Assay [8] has as its system K562-CdA human promyelocytic leukemia, cladrubin resistant. The assay can be described thus: MTT cytotoxicity assay, K562-CdA. The format is cell-based. The following applies: 72 hours, read-out: TCS50.
Description: as §1, §2

In assay [9] the test system is CEM-DNR 1/C2 human T-lymphoblastic leukemia, daunorubicin resistant. The assay can be described thus: MTT cytotoxicity assay, CEM-DNR 1/C2. The format is cell-based. The following applies: 72 hours, read-out: TCS50.
Description: as §1, §2

Assay [10] relates to MCF-7 human breast cancer, estrogen dependent, p53+/+, Rb+/+. The assay can be described thus: MTT cytotoxicity assay, MCF-7. The following applies: 72 hours, read-out: TCS50. The class given is cell-based.
Description: as §1, §2

For assay [11], the system named is U2OS human osteosarcoma, p53+/−, Rb+/−. Put plainly: MTT cytotoxicity assay, U2OS. The format is cell-based. The following applies: 72 hours, read-out: TCS50.
Description: as §1, §2

As for `CC(=O)OC[C@@]1(C(=O)O)CC[C@]2(C)[C@H](CC[C@@H]3[C@@]4(C)CC[C@H](OC(C)=O)C(C)(C)[C@@H]4CC[C@]32C)C1=O` [I.3, 3β,28-diacetoxy-18-oxo-19,20,21,29,30-pentanorlupan-22-oic acid], the pIC50 with B16 mouse melanoma is 5.68; in assay [1] it was 5.70; in the assay on human normal lymphocytes, 4.89; in assay [2], 5.33; in [3], 6.00; in the assay on U87MG human glioblastoma it was 5.29. Besides, the pIC50 is 5.48 in assay [4]; 5.14 in assay [5]; 5.52 in assay [6]; 5.70 in assay [7] (CEM cells, as stated in the histone acetylation study, read-out: IC50); 6.00 in assay [7] (CEM, MTT assay, 72 hours, read-out: TCS50); 6.52 in assay [8]. Further, the pIC50 in assay [9] was 6.22; in [10], 5.64; in [11], 5.82. Besides, in the assay on H3 histone (Lys9) (2 μM (IC50)), the “time points showing histone acetylation” value is 45 to 120 min. The “time to appearance of acetylated histone” value in the assay on H3 histone (Lys9) (20 μM (10×IC50)) was 30 min. Further, in the assay on H3 histone (Lys9) (Western blot (FIG. 5)), the “acetylation of H3 histone in Lys9 position” value is recorded as “rapidly acetylated”.
